ChEMBL document CHEMBL1201862, “PubChem BioAssay data set” (2004)
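Following 48 hours of exposure in 96-well plates, responses at five concentrations were used to interpolate endpoints linearly. At the GI50, growth is halved.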 Calls of active or inactive are those of the source. Rule as the data show it: active = GI50 up to about 1.1 µM and inactive = higher.

Tests used:
Assay in all cases: NCI-60 cell line screen, 48 h
UACC-257 = test system: UACC-257
A498 = test system: A498
NCI-H460 = test system: NCI-H460
Malme-3M = test system: Malme-3M
M14 = test system: M14
OVCAR-4 = test system: OVCAR-4
SF-295 = test system: SF-295
HT-29 = test system: HT-29
U-251 = test system: U-251
LOX IMVI = test system: LOX IMVI
DU-145 = test system: DU-145
COLO 205 = test system: COLO 205
EKVX = test system: EKVX
SW-620 = test system: SW-620
SNB-75 = test system: SNB-75
MDA-MB-231 = test system: MDA-MB-231
SF-539 = test system: SF-539
NCI/ADR-RES = test system: NCI/ADR-RES
HOP-62 = test system: HOP-62
NCI-H522 = test system: NCI-H522

SMILES	GI50 (UACC-257)	GI50 (A498)	GI50 (NCI-H460)	GI50 (Malme-3M)	GI50 (M14)	GI50 (OVCAR-4)	GI50 (SF-295)	GI50 (HT-29)	GI50 (U-251)	GI50 (LOX IMVI)	GI50 (DU-145)	GI50 (COLO 205)	GI50 (EKVX)	GI50 (SW-620)	GI50 (SNB-75)	GI50 (MDA-MB-231)	GI50 (SF-539)	GI50 (NCI/ADR-RES)	GI50 (HOP-62)	GI50 (NCI-H522)
COc1ccccc1/C=C/c1ccnc2ccccc12	16 µM (inactive)	15.4 µM (inactive)	15.5 µM (inactive)	11.7 µM (inactive)	16.2 µM (inactive)	12.8 µM (inactive)	14.2 µM (inactive)	12.8 µM (inactive)	11.9 µM (inactive)	16.3 µM (inactive)	16.4 µM (inactive)	17.1 µM (inactive)	11 µM (inactive)	13.8 µM (inactive)	3.37 µM (inactive)	16.1 µM (inactive)	14.6 µM (inactive)	11.3 µM (inactive)	16.1 µM (inactive)	
O=C(CC1C=CCS1(=O)=O)NCc1ccccc1 (stereo unspecified)	> 100 µM (inactive)		> 100 µM (inactive)		> 100 µM (inactive)	> 100 µM (inactive)	> 100 µM (inactive)	> 100 µM (inactive)	> 100 µM (inactive)	> 100 µM (inactive)	> 100 µM (inactive)	> 100 µM (inactive)	> 100 µM (inactive)	> 100 µM (inactive)	> 100 µM (inactive)	> 100 µM (inactive)	> 100 µM (inactive)	> 100 µM (inactive)	> 100 µM (inactive)	> 100 µM (inactive)
CCN(CC)CCN1C=CC(C)C(C(=O)O)C1C(N)=O (stereo unspecified)	> 100 µM (inactive)	> 100 µM (inactive)	> 100 µM (inactive)		> 100 µM (inactive)	> 100 µM (inactive)	> 100 µM (inactive)	> 100 µM (inactive)	> 100 µM (inactive)	> 100 µM (inactive)	> 100 µM (inactive)	> 100 µM (inactive)	> 100 µM (inactive)	> 100 µM (inactive)	> 100 µM (inactive)	> 100 µM (inactive)		> 100 µM (inactive)	> 100 µM (inactive)	> 100 µM (inactive)
CCc1nc(N)c2nc(-c3cccs3)oc2n1	> 100 µM (inactive)	> 10 µM (inactive)	24.3 µM (inactive)		> 100 µM (inactive)		> 100 µM (inactive)	> 100 µM (inactive)	> 100 µM (inactive)	87.7 µM (inactive)	> 100 µM (inactive)	> 100 µM (inactive)	50.1 µM (inactive)	> 100 µM (inactive)	71.4 µM (inactive)	> 100 µM (inactive)	> 100 µM (inactive)	> 100 µM (inactive)	> 100 µM (inactive)	> 100 µM (inactive)
Cc1ccc(S(=O)(=O)/N=C(\NN)Nc2ccc(Cl)cc2)cc1	> 100 µM (inactive)	> 100 µM (inactive)	> 100 µM (inactive)		> 100 µM (inactive)	> 100 µM (inactive)	> 100 µM (inactive)	> 100 µM (inactive)	> 100 µM (inactive)	> 100 µM (inactive)	> 100 µM (inactive)	> 100 µM (inactive)	> 100 µM (inactive)	> 100 µM (inactive)	37.8 µM (inactive)	> 100 µM (inactive)	35.2 µM (inactive)	> 100 µM (inactive)	> 100 µM (inactive)	
CC(=O)c1cccc(Nc2nc3ccccc3c3occc23)c1	> 100 µM (inactive)	9.98 µM (inactive)	20.5 µM (inactive)	19.9 µM (inactive)	35.2 µM (inactive)	16.2 µM (inactive)	16.2 µM (inactive)	6.22 µM (inactive)	17.9 µM (inactive)	46.2 µM (inactive)	33.6 µM (inactive)	> 100 µM (inactive)	22 µM (inactive)		22.7 µM (inactive)	24.8 µM (inactive)	15.5 µM (inactive)	23 µM (inactive)	14 µM (inactive)	
CC(=O)c1ccccc1NCC(=O)Nn1cnc2ccc(S(=O)(=O)Nc3ccccc3C(C)=O)cc2c1=O	> 100 µM (inactive)		> 100 µM (inactive)	> 100 µM (inactive)	> 100 µM (inactive)	> 100 µM (inactive)	> 100 µM (inactive)	> 100 µM (inactive)	> 100 µM (inactive)	> 100 µM (inactive)	> 100 µM (inactive)	> 100 µM (inactive)	> 100 µM (inactive)	> 100 µM (inactive)	> 100 µM (inactive)	> 100 µM (inactive)	> 100 µM (inactive)	> 100 µM (inactive)	> 100 µM (inactive)	> 100 µM (inactive)
Cc1ccc2c3c(cnc2n1)C(=O)OCCN3C	> 100 µM (inactive)	> 100 µM (inactive)	> 100 µM (inactive)		> 100 µM (inactive)	> 100 µM (inactive)	> 100 µM (inactive)	> 100 µM (inactive)	> 100 µM (inactive)	> 100 µM (inactive)	> 100 µM (inactive)	> 100 µM (inactive)	> 100 µM (inactive)	> 100 µM (inactive)		> 100 µM (inactive)	> 100 µM (inactive)	> 100 µM (inactive)	> 100 µM (inactive)	> 100 µM (inactive)
CCC1(CC)C(=O)NN(C(=O)c2ccc(Cl)cc2)C1=O	> 100 µM (inactive)		> 100 µM (inactive)	0.23 µM (active)	> 100 µM (inactive)	> 100 µM (inactive)	> 100 µM (inactive)	> 100 µM (inactive)	> 100 µM (inactive)	> 100 µM (inactive)	> 100 µM (inactive)	> 100 µM (inactive)	> 100 µM (inactive)	> 100 µM (inactive)	> 100 µM (inactive)	> 100 µM (inactive)		> 100 µM (inactive)	> 100 µM (inactive)	32.1 µM (inactive)
O=C1c2ccccc2-c2c1c(-c1ccc(O)cc1O)nc1ccc3ccccc3c21	> 100 µM (inactive)	> 100 µM (inactive)	> 100 µM (inactive)	> 100 µM (inactive)	> 100 µM (inactive)	> 100 µM (inactive)	> 100 µM (inactive)	> 100 µM (inactive)	75.2 µM (inactive)		> 100 µM (inactive)	> 100 µM (inactive)	> 100 µM (inactive)	> 100 µM (inactive)	> 100 µM (inactive)	27.8 µM (inactive)	> 100 µM (inactive)	> 100 µM (inactive)	49 µM (inactive)	
O=C1Nc2ccccc2/C1=C\c1c(Cl)n(-c2ccccc2)c2ccccc12	9.2 µM (inactive)	6.7 µM (inactive)	3.18 µM (inactive)	2.07 µM (inactive)	2.92 µM (inactive)	5.02 µM (inactive)	3.18 µM (inactive)	2.43 µM (inactive)	3.48 µM (inactive)	3.56 µM (inactive)	2.79 µM (inactive)	1.61 µM (inactive)	2.33 µM (inactive)	2.47 µM (inactive)	1.73 µM (inactive)	3.03 µM (inactive)	1.87 µM (inactive)	2.38 µM (inactive)	4.68 µM (inactive)	
